Series [1] deals with mouse macrophage cell line J774.2. The series is described as follows: In vitro cytotoxicity, MTT method. The settings on record: for SI: selectivity index CC50/IC50. As to the method:
(§1) The mouse macrophage cell line J774.2 (ATCC® TIB-67) was used for the evaluation of the in vitro cytotoxicity. Cells were cultured in RPMI medium supplemented with 10% SFB, […], and glutamine (2 mM) at 37 °C and in an atmosphere of 5% CO2. The medium was changed at intervals of every 2 to 3 days. For the cytotoxicity assays, 1 × 10^6 cells were incubated with different concentrations of the compounds (0.78 to 200 µM) at 37 °C for 48 h in an atmosphere of 5% CO2. Cells in the presence of the maximum concentration of DMSO (0.2%) were included as a negative control. The metabolic activity of the cells was determined using the MTT method. The percentage of cell viability was calculated, and the mean cytotoxic concentration (CC50) was determined via a Probit analysis. Three independent assays were performed in triplicate each. Finally, the selectivity index (SI) was calculated using the following formula CC50/IC50.
On the technique in general: Tetrazolium assays rely on reduction of a dye to a coloured formazan, in cell work by metabolically active cells.

Series [2] in a line: In vitro cytotoxicity, MTT method. Particulars: mouse, J774.2 macrophage cells, CC50 (µM), macrophage cell line J774.2, 48 h, MTT; means of three experiments. The protocol: as §1
In series [3] the target is SARS-CoV-2 spike RBD to human ACE2 (Severe acute respiratory syndrome coronavirus 2, UniProt P0DTC2). The series is described as follows: biochemical. The settings on record: for IC50: IC50 (µM). It counts as binding, SARS-CoV-2 / human.
The test system of series [4] is rats. The settings on record: concentrations of 0.03, 0.3, and 3%; cited from earlier work.
In series [5] the target is S protein with the ACE2 host receptor. The settings on record: cell-free ELISA-type assay; cited from earlier work. In general terms: In an ELISA, binding on a coated surface is turned into a signal by an enzyme label.
Series [6] deals with S protein. Particulars: block the S protein and inhibit protein-mediated intercellular fusion; cited from earlier work.
In series [7] the test system is meiobenthic nematodes. The settings on record: cited from earlier work.
Series [8] deals with S protein and its host cell receptor ACE2. The settings on record: cited from earlier work.
Series [9] shares this test system. The settings on record: cited from earlier work. This is another data set of the same source.

Values after ≈ are worked out from the molar mass of the structure shown. Values joined by “and” are separate entries in the source; they are usually repeats but may differ in a detail not shown here. Equal values may be shown once.

Here are results for eleven compounds from PMC11124852 (Pharmaceutics, 2024).

The CC50 is the concentration at which the toxic effect on the cells reaches its halfway point. As usually defined, the inhibition is how much of the control response was suppressed. Read a high inhibition as a response far below the control. A word on the IC50: it is the concentration that gives 50% inhibition. Broadly, the Kd is a measure of binding affinity in units of concentration.

`O=C(Nc1ccc2c(O)c(/N=N/c3ccc(/N=N/c4ccc(S(=O)(=O)[O-])cc4)cc3)c(S(=O)(=O)[O-])cc2c1)c1ccccc1.[Na+].[Na+]` [DRI-1, [Na+].[Na+].c1(/N=N/c2ccc(cc2)/N=N/c2c(cc3c(c2O)ccc(c3)NC(=O)c2ccccc2)S(=O)(=O)[O-])ccc(cc1)S(=O)(=O)[O-]]: the CC50 in [1] (macrophage cell line J774.2, 48 h, MTT, means of three experiments) stood at 94.5 ± 0.96 µM. Besides, the SI in series [1] was 7.25. In series [2], this compound had a 50% cytotoxic concentration (CC50) at 48 h of 94.5 µM. In [3], this compound came in with an inhibition at 50 µM of 90.59 ± 0.54% and a 50% inhibitory concentration (IC50) of 13 ± 0.71 µM.
Turning to `O=C(Nc1ccc2c(O)cc(S(=O)(=O)O)cc2c1)Nc1ccc2c(O)cc(S(=O)(=O)O)cc2c1` [DRI-2, c12c(ccc(c1)NC(=O)Nc1cc3c(cc1)c(cc(c3)S(=O)(=O)O)O)c(cc(c2)S(=O)(=O)O)O], the SI in [1] is 22.6 and 22.62. In series [3], this compound registered an inhibition at 50 µM of 90.8 ± 1.7% and an IC50 of 8.84 ± 4.3 µM.
Consider `CCN(Cc1cccc(S(=O)(=O)O)c1)c1ccc(C(=C2C=CC(=[N+](CC)Cc3cccc(S(=O)(=O)O)c3)C=C2)c2ccccc2)cc1` [DRI-3, guinea green B], for which the SI in series [1] was 93.4 and 93.45. The toxicity in rats result in [4] was “initial growth depression in rats, as well as the appearance of malignant tumors”. In series [3], this compound returned an inhibition at 50 µM of 99.65 ± 0.25% and a 50% inhibitory concentration (IC50) of 2.14 ± 0.97 µM.
The compound `CCOc1ccc(NS(=O)(=O)c2ccc(NC(=O)c3ccc(-c4ccccc4)cc3)cc2)cc1` [DRI-4, S(=O)(=O)(Nc1ccc(cc1)OCC)c1ccc(NC(=O)c2ccc(cc2)c2ccccc2)cc1] registered an SI in series [1] of 8.14. In series [2], this compound yielded a CC50 at 48 h of more than 200 µM. In series [3], this compound had an inhibition at 50 µM of 76.4 ± 1% and a concentration for half-maximal inhibition (IC50) of 24.6 ± 2.5 µM.
The like results for `CC(=O)Nc1ccc(OS(=O)(=O)c2ccc3c4c(cccc24)C(=O)N3)c2ccccc12` [DRI-5, CC(=O)Nc1ccc(OS(=O)(=O)c2ccc3NC(=O)c4cccc2c34)c2ccccc12] were, in that order, 9.21, 126 ± 2.3 µM, 69.9 ± 1.2% and 13.7 ± 0.12 µM.
Consider `O=C(Nc1ccc2cc(S(=O)(=O)O)cc(O)c2c1)c1ccc(-c2ccc(C(=O)Nc3ccc4cc(S(=O)(=O)O)cc(O)c4c3)cc2)cc1` [DRI-C91005], for which the IC50 in series [5] is 0.16 µM.
Take `C[C@]12CC[C@@H]3c4ccc(OC(=O)c5ccccc5)cc4CC[C@H]3[C@@H]1CC[C@@H]2O` [estradiol benzoate]: in series [6], the IC50 was 1.02 µM. Besides, in series [7], the “concentration from which significant toxicity starts” value was not below 4.3 pg/mL.
Regarding `CCC(C)n1ncn(-c2ccc(N3CCN(c4ccc(OCC5COC(Cn6cncn6)(c6ccc(Cl)cc6Cl)O5)cc4)CC3)cc2)c1=O` (stereo not drawn) [itraconazole], the IC50 in series [6] was 0.45 µM.
Consider `COc1ccc2c(O[C@@H]3C[C@H]4C(=O)N[C@]5(C(=O)NS(=O)(=O)C6CC6)C[C@H]5/C=C\CCCCN(C)C(=O)[C@@H]4C3)cc(-c3nc(C(C)C)cs3)nc2c1C` [simeprevir], for which, in [8], the Kd was 0.812 µM.
For `CS(=O)(=O)c1cccc(C[C@H](NC(=O)c2c(Cl)cc3c(c2Cl)CCN(C(=O)c2ccc4ccoc4c2)C3)C(=O)O)c1` [sodium lifitegrast], in series [8], the Kd was 0.00192 µM.
`CC1=C(C)C(=O)O[C@@H]([C@@H](C)[C@@]2(O)CC[C@H]3[C@@H]4[C@@H]5O[C@@H]5[C@@]5(O)CC=CC(=O)[C@]5(C)[C@H]4CC[C@@]32C)C1` [withanone]: the IC50 in series [9] is given as 0.33 ng/mL (≈ 0.701 nM).
